Test results published in ChEMBL document CHEMBL1201862, “PubChem BioAssay data set” (2004).
“And” between values parts separate entries of the source, which are not always exact repeats. Identical values can stand only once.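 Method: 48-hour compound exposure of cells in 96-well plates, five concentrations, linear interpolation of endpoints. At the GI50, growth is halved.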 The source made the active and inactive calls. Cut-off read from the data, not from the text of the source: active = GI50 up to about 1.1 µM and inactive = higher.

Experiments:
Assay in all cases: NCI anticancer screen, dose series, 48 h
NCI-H226 = system: NCI-H226
DU-145 = system: DU-145
786-0 = system: 786-0
PC-3 = system: PC-3
SK-OV-3 = system: SK-OV-3
SK-MEL-5 = system: SK-MEL-5
NCI-H23 = system: NCI-H23
SN12C = system: SN12C
SK-MEL-2 = system: SK-MEL-2
M14 = system: M14
RPMI-8226 = system: RPMI-8226
NCI/ADR-RES = system: NCI/ADR-RES
HCT-116 = system: HCT-116
MOLT-4 = system: MOLT-4
U-251 = system: U-251
Malme-3M = system: Malme-3M
IGROV-1 = system: IGROV-1
TK-10 = system: TK-10
A549 = system: A549
MDA-MB-231 = system: MDA-MB-231
BT-549 = system: BT-549
HL-60 = system: HL-60
OVCAR-3 = system: OVCAR-3
CCRF-CEM = system: CCRF-CEM
HOP-62 = system: HOP-62
UACC-62 = system: UACC-62
OVCAR-4 = system: OVCAR-4
EKVX = system: EKVX
HT-29 = system: HT-29
MDA-N = system: MDA-N
COLO 205 = system: COLO 205
CAKI-1 = system: CAKI-1
MDA-MB-435 = system: MDA-MB-435
Hs-578T = system: Hs-578T
SF-539 = system: SF-539
K562 = system: K562
SR = system: SR
SNB-19 = system: SNB-19
NCI-H522 = system: NCI-H522
OVCAR-8 = system: OVCAR-8
NCI-H460 = system: NCI-H460
HCC 2998 = system: HCC 2998
ACHN = system: ACHN
SNB-75 = system: SNB-75
MCF7 = system: MCF7
UACC-257 = system: UACC-257
SF-268 = system: SF-268
SF-295 = system: SF-295
RXF 393 = system: RXF 393
HCT-15 = system: HCT-15
OVCAR-5 = system: OVCAR-5
UO-31 = system: UO-31
KM12 = system: KM12
A498 = system: A498
T47D = system: T47D
SK-MEL-28 = system: SK-MEL-28
SW-620 = system: SW-620
LOX IMVI = system: LOX IMVI

For `Cc1ccc(/N=N/C(=N/NC(=O)c2cc(Cl)ccc2O)c2ccc(N(CCC#N)CCC#N)cc2C)cc1`, the GI50 (NCI-H226) was 17.1 µM (inactive), the GI50 (DU-145) was 26.9 µM (inactive) and the GI50 (786-0) was 28.1 µM (inactive). For the same compound, the GI50 (PC-3) was 24.3 µM (inactive), the GI50 (SK-OV-3) was 32.9 µM (inactive) and the GI50 (SK-MEL-5) was 16.8 µM (inactive). For the same compound, the GI50 (NCI-H23) was 18.6 µM (inactive), the GI50 (SN12C) was 28.4 µM (inactive) and the GI50 (SK-MEL-2) was 15.7 µM (inactive). For the same compound, the GI50 (M14) was 30.6 µM (inactive), the GI50 (RPMI-8226) was 8.36 µM (inactive) and the GI50 (NCI/ADR-RES) was 38.4 µM (inactive). For the same compound, the GI50 (HCT-116) was 19 µM (inactive), the GI50 (MOLT-4) was 53.7 µM (inactive) and the GI50 (U-251) was 18.2 µM (inactive). The GI50 (Malme-3M) was 20.6 µM (inactive), the GI50 (IGROV-1) was 23.9 µM (inactive) and the GI50 (TK-10) was 21.2 µM (inactive). For the same compound, the GI50 (A549) was 28.6 µM (inactive), the GI50 (MDA-MB-231) was 25.3 µM (inactive) and the GI50 (BT-549) was 27.5 µM (inactive). For the same compound, the GI50 (HL-60) was 4.55 µM (inactive), the GI50 (OVCAR-3) was 11.1 µM (inactive) and the GI50 (CCRF-CEM) was 26 µM (inactive). For the same compound, the GI50 (HOP-62) was 32.8 µM (inactive), the GI50 (UACC-62) was 22.7 µM (inactive) and the GI50 (OVCAR-4) was 23.8 µM (inactive). The GI50 (EKVX) was 21.5 µM (inactive), the GI50 (HT-29) was 14.6 µM (inactive) and the GI50 (MDA-N) was 30.6 µM (inactive). For the same compound, the GI50 (COLO 205) was 12.4 µM (inactive), the GI50 (CAKI-1) was 41.4 µM (inactive) and the GI50 (MDA-MB-435) was 34 µM (inactive). The GI50 (Hs-578T) was 9.95 µM (inactive), the GI50 (SF-539) was 18.5 µM (inactive) and the GI50 (K562) was 17.1 µM (inactive). For the same compound, the GI50 (SR) was 51.2 µM (inactive), the GI50 (SNB-19) was 25.5 µM (inactive) and the GI50 (NCI-H522) was 8.95 µM (inactive). The GI50 (OVCAR-8) was 20.7 µM (inactive), the GI50 (NCI-H460) was 21.8 µM (inactive) and the GI50 (HCC 2998) was 24.1 µM (inactive). The GI50 (ACHN) was 24.4 µM (inactive), the GI50 (SNB-75) was 26.7 µM (inactive) and the GI50 (MCF7) was 24.7 µM (inactive). The GI50 (UACC-257) was 13.2 µM (inactive), the GI50 (SF-268) was 25.1 µM (inactive) and the GI50 (SF-295) was 21.3 µM (inactive). For the same compound, the GI50 (RXF 393) was 18.2 µM (inactive), the GI50 (HCT-15) was 32.1 µM and the GI50 (OVCAR-5) was 41.5 µM (inactive). The GI50 (UO-31) was 24.8 µM (inactive), the GI50 (KM12) was 18.1 µM (inactive) and the GI50 (A498) was 12.1 µM (inactive). The GI50 (T47D) was 7.29 µM (inactive).

For `CC(=O)OCC1OC(SC2=NC(=O)CS2)C(OC(C)=O)C(OC(C)=O)C1OC(C)=O` (centres undefined), the GI50 (NCI-H226) was > 100 µM (inactive), the GI50 (DU-145) was > 100 µM (inactive) and the GI50 (786-0) was > 100 µM (inactive). For the same compound, the GI50 (PC-3) was 84.1 µM (inactive) and 95.5 µM (inactive), the GI50 (SK-OV-3) was > 100 µM (inactive) and the GI50 (SK-MEL-5) was > 100 µM (inactive). For the same compound, the GI50 (NCI-H23) was > 100 µM (inactive), the GI50 (SN12C) was > 100 µM (inactive) and the GI50 (M14) was > 100 µM (inactive). For the same compound, the GI50 (RPMI-8226) was 51.8 µM (inactive) and 27.4 µM (inactive), the GI50 (NCI/ADR-RES) was > 100 µM (inactive) and the GI50 (MOLT-4) was 57.7 µM (inactive) and 51.8 µM (inactive). For the same compound, the GI50 (Malme-3M) was > 100 µM (inactive), the GI50 (IGROV-1) was > 100 µM (inactive) and the GI50 (TK-10) was 53.7 µM (inactive). For the same compound, the GI50 (A549) was > 100 µM (inactive), the GI50 (MDA-MB-231) was > 100 µM (inactive) and the GI50 (BT-549) was 93.5 µM (inactive) and 62.7 µM (inactive). The GI50 (HL-60) was 26.7 µM (inactive) and 23.4 µM (inactive), the GI50 (OVCAR-3) was > 100 µM (inactive) and the GI50 (CCRF-CEM) was 31.5 µM (inactive) and 32.3 µM (inactive). For the same compound, the GI50 (HOP-62) was > 100 µM (inactive), the GI50 (UACC-62) was > 100 µM (inactive) and 76.6 µM (inactive) and the GI50 (SK-MEL-28) was > 100 µM (inactive). The GI50 (HT-29) was > 100 µM (inactive), the GI50 (MDA-N) was > 100 µM (inactive) and the GI50 (CAKI-1) was 68.7 µM (inactive). For the same compound, the GI50 (MDA-MB-435) was > 100 µM (inactive), the GI50 (Hs-578T) was > 100 µM (inactive) and the GI50 (SF-539) was > 100 µM (inactive). The GI50 (K562) was 43.5 µM (inactive) and 40 µM (inactive), the GI50 (SW-620) was > 100 µM (inactive) and the GI50 (SR) was 39.6 µM (inactive) and 67.5 µM (inactive). For the same compound, the GI50 (LOX IMVI) was > 100 µM (inactive), the GI50 (SNB-19) was > 100 µM (inactive) and the GI50 (NCI-H522) was 47 µM (inactive) and 78.9 µM (inactive). The GI50 (OVCAR-8) was > 100 µM (inactive), the GI50 (NCI-H460) was > 100 µM (inactive) and the GI50 (HCC 2998) was > 100 µM (inactive). The GI50 (ACHN) was > 100 µM (inactive), the GI50 (SNB-75) was > 100 µM (inactive) and the GI50 (MCF7) was 71.4 µM (inactive). For the same compound, the GI50 (UACC-257) was > 100 µM (inactive), the GI50 (SF-268) was > 100 µM (inactive) and the GI50 (SF-295) was > 100 µM (inactive). For the same compound, the GI50 (RXF 393) was > 100 µM (inactive), the GI50 (OVCAR-5) was > 100 µM (inactive) and the GI50 (UO-31) was > 100 µM (inactive). For the same compound, the GI50 (KM12) was > 100 µM (inactive), the GI50 (A498) was > 100 µM (inactive) and the GI50 (T47D) was > 100 µM (inactive).

`c1ccc(-c2cc(-c3cc(-c4ccccc4)[nH]n3)[nH]n2)cc1` was tested, and the GI50 (NCI-H226) was > 100 µM (inactive), the GI50 (DU-145) was > 100 µM (inactive) and the GI50 (786-0) was > 100 µM (inactive). For the same compound, the GI50 (PC-3) was > 100 µM (inactive), the GI50 (SK-OV-3) was > 100 µM (inactive) and the GI50 (SK-MEL-5) was > 100 µM (inactive). For the same compound, the GI50 (NCI-H23) was > 100 µM (inactive), the GI50 (SN12C) was > 100 µM (inactive) and the GI50 (SK-MEL-2) was > 100 µM (inactive). The GI50 (M14) was > 100 µM (inactive), the GI50 (NCI/ADR-RES) was > 100 µM (inactive) and the GI50 (HCT-116) was > 100 µM (inactive). For the same compound, the GI50 (MOLT-4) was > 100 µM (inactive), the GI50 (U-251) was > 100 µM (inactive) and the GI50 (Malme-3M) was > 100 µM (inactive). For the same compound, the GI50 (IGROV-1) was > 100 µM (inactive), the GI50 (TK-10) was > 100 µM (inactive) and the GI50 (A549) was > 100 µM (inactive). For the same compound, the GI50 (MDA-MB-231) was > 100 µM (inactive), the GI50 (BT-549) was > 100 µM (inactive) and the GI50 (OVCAR-3) was > 100 µM (inactive). For the same compound, the GI50 (CCRF-CEM) was > 100 µM (inactive), the GI50 (HOP-62) was > 100 µM (inactive) and the GI50 (UACC-62) was > 100 µM (inactive). The GI50 (OVCAR-4) was > 100 µM (inactive), the GI50 (EKVX) was > 100 µM (inactive) and the GI50 (HT-29) was > 100 µM (inactive). For the same compound, the GI50 (MDA-N) was > 100 µM (inactive), the GI50 (COLO 205) was > 100 µM (inactive) and the GI50 (CAKI-1) was > 100 µM (inactive). The GI50 (MDA-MB-435) was > 100 µM (inactive), the GI50 (Hs-578T) was > 100 µM (inactive) and the GI50 (SF-539) was > 100 µM (inactive). The GI50 (K562) was > 100 µM (inactive), the GI50 (SR) was > 100 µM (inactive) and the GI50 (SNB-19) was > 100 µM (inactive). For the same compound, the GI50 (NCI-H522) was > 100 µM (inactive), the GI50 (OVCAR-8) was > 100 µM (inactive) and the GI50 (NCI-H460) was > 100 µM (inactive). For the same compound, the GI50 (HCC 2998) was > 100 µM (inactive), the GI50 (ACHN) was > 100 µM (inactive) and the GI50 (SNB-75) was > 100 µM (inactive). The GI50 (MCF7) was > 100 µM (inactive), the GI50 (UACC-257) was > 100 µM (inactive) and the GI50 (SF-268) was > 100 µM (inactive). For the same compound, the GI50 (SF-295) was > 100 µM (inactive), the GI50 (RXF 393) was > 100 µM (inactive) and the GI50 (HCT-15) was greater than 100 µM. For the same compound, the GI50 (OVCAR-5) was > 100 µM (inactive), the GI50 (UO-31) was > 100 µM (inactive) and the GI50 (KM12) was > 100 µM (inactive). For the same compound, the GI50 (A498) was > 100 µM (inactive) and the GI50 (T47D) was > 100 µM (inactive).
